One series concerns isolated chloroplasts. Kind of series: Oxygen evolution bioassay, phytotoxicity (isolated chloroplasts). Format: cell-based, Spinach (Spinacia oleracea L. var. Melody). As to conditions: for inhibition of oxygen evolution: 8 uM. Here is the method: The following procedure for the preparation of chloroplasts to use in an oxygen electrode is similar to that of Gupta et al., "Development and Use of Chlorotetracycline Fluorescence as a Measurement Assay of Chloroplast Envelope-Bound Mg^2+, "Plant Physiol. 89, (1989) 753-761. Spinach (Spinacia oleracea L. var. `Melody`) was grown in 1:1 peat/vermiculite potting mix in a growth chamber with a 10 hour light period. The chamber temperature was maintained at 21° C. (day) and 16° C. (night) during the growth period. All plants were used for chloroplast isolation after 6-8 weeks of growth.
In order to obtain an enriched chloroplast fraction, about 12 g of deribbed spinach leaves were thoroughly washed and surface dried. The leaves were then cut into small pieces, each about 1/2 inch square, and were placed in a small blender jar containing 50 mL of chilled homogenization medium (0.33M sorbitol, 50 mM Hepes-NaOH, pH 6.8, 2mM Na2 EDTA, 1 mM MnCl2, 1 mM MgCl2). The tissue was blended twice for three second intervals on high speed in a blender. The resulting homogenate was filtered through four layers of cheesecloth and two layers of miracloth (Behring Diagnostics, La Jolla, Calif.) into two chilled 30 mL glass centrifuge tubes. The filtered solution was centrifuged for 1.0 minute at 750 g (2,200 RPM) in a JS 13.1 swinging bucket rotor in a Beckman J2-21M centrifuge (Beckman Instruments, Inc., Somerset, N.J.). The supernatant was then decanted and the pellet was gently resuspended by swirling at 0° C. About 15 mL of homogenization medium was added to each tube of chloroplasts before the chloroplasts were layered onto a 40% Percoll gradient (6 mL Percoll, 9 mL homogenization medium, and 0.03 g bovine serum albumin) in a 30 mL glass centrifuge tube. These tubes were centrifuged for 4.0 minutes at 2500 g (4000 RPM) in a JS 13.1 swinging bucket rotor in a Beckman J2-21M centrifuge. The supernatant was removed and the resulting pellet was resuspended in a small amount of homogenization medium (about 500 microliters).
Plastid concentration was generally expressed on a chlorophyll basis. Chlorophyll was determined by the method of Arnon "Copper Enzymes in Isolated Chloroplasts, Polyphenol Oxidase in Beta Vulgaris," Plant Physiol. 24, (1949) 1-15. About 50 microliters of chloroplast stock suspension was added to 10 mL of 80% acetone and this solution was incubated 5.0 minutes in the dark and then centrifuged for 5.0 minutes at 500 g (1630 RPM) in a Beckman GP centrifuge. The absorbance of the acetone-chloroplast solution was monitored at 645 nm, at 663 nm and at 730 nm. The chlorophyll concentration was then calculated as 10× [(absorbance at 645 nm×20.2)+(absorbance at 663 nm×8.02)--background at 730 nm]. This gave the amount of chlorophyll in micrograms for the original 50 microliters of chloroplasts. The concentration of chloroplasts was then adjusted with homogenization medium so that 50 microliters of suspension contained 26 micrograms of chlorophyll. These chloroplasts were only active for 11/2 to 2 hours and were therefore used immediately.
An oxygen electrode (Hansatech Instruments Ltd., Kings Lynn, Norfolk, England) was used to measure oxygen evolution from isolated chloroplasts. For a detailed discussion of the method see, D. Walker, "The Use of the Oxygen Electrode and Fluorescence Probes in Simple Measurements of Photosynthesis," supra. A saturated KCl solution was placed in the electrode well and a one-inch square of rolling paper or lens paper was placed in to the electrode well so that it soaked up KCl and formed an ionic bridge. A one-inch square of teflon membrane was then prepared, being careful not to touch its surface, and was placed over the soaked paper. Using the membrane applicator, an O ring was placed over the head of the electrode, thereby securing paper and membrane across the electrode. The CB-1D control box was turned on and the system was allowed to warm up approximately one hour before calibration. […]

Series [1] concerns plant protease. As to conditions: cited from earlier work.
Series [2] concerns maize BMS suspension cells. The series can be described thus: Whole cell phytotoxicity screening (oxygen consumption). It counts as cell-based. How it is done: Oxygen consumed by maize BMS suspension cells were determined as an indication of the relative phytotoxicity of antimicrobial peptides. Black Mexican Sweet (BMS) cell suspension cultures were maintained by transferring 25 mls of cell culture to 25 mls of fresh MSA2D media (4.4 g bottle of Murashige and Skoog basal salt mixture Sigma catalog No. M5524, 100 mg myoinositol, 150 mg L-asparagine, 30 g sucrose, 20 mls of 0.1 mg/ml 2.4-dichlorophenoxy acetic acid stock and 1 ml of vitamin stock consisting of 25 mg/100 ml calcium pantothenate, 50 mg/100 ml pyridoxine, 50 mg/100 ml nicotinic acid, 50 mg/100 ml thiamine, 200 mg/100 ml glycine all added to 1 liter sterile distilled water followed by autoclaving 25 minutes at 121° C.) in a capped sterile 250 ml Erlenmeyer flask 3 days after culture initiation. Four days later 12.5 mls of the cell culture was transferred to 35.5 mls of fresh MSA2D media. Cultures were continuously maintained by alternating 3 and 4 day transfer regimes. The cultures were shaken in low light at 125 RPM at room temperature. For oxygen consumption experiments cells were used one day after transferring to fresh media. Cells were poured into a sterile 50 ml centrifuge tube and allowed to settle by gravity. Spent media was drawn off and 7.8 mls of fresh MSA2D media was added per gram of settled cells. The cell stock solution was placed on a shaker for continued aeration and was used in all assays conducted on that day.
An oxygen electrode (Hansatech Limited, Kings' Lynn, Norfolk, England) was inspected to insure that no corrosion was present. A saturated KCl solution was then placed in the clean electrode well. A 1 inch square of rolling paper or lens paper was cut and placed over the well so that the edges of the paper soaked up KCl and formed an ionic bridge. A 1 inch square of teflon membrane was cut, being careful not to touch the surface, and placed over the soaked rolling paper. A membrane applicator was used to press an O-ring over the head of the electrode thereby securing paper and membrane across the electrode. The CB-1D control box (Hansatech Limited) was turned on and allowed to warm up approximately one hour before calibration. The CB-1D control box was set at 1X output. A chart recorder was set at 0.05 V input with a chart speed of 3 cm/min. A circulating water bath set at 20° C. was hooked up to the electrode chamber. The entire system was calibrated using air-saturated water obtained by vigorously shaking a wash bottle of distilled water. Using the gain switch, the output was set so that the pen on the chart recorder was at the maximum chart height (900=top). The oxygen concentration of air-saturated water was assumed to be 276 nmole/mL at 20° C. All air was removed from the water in the cuvette by adding 2-3 mg of sodium dithionite. The pen on the chart recorder responded by moving to the bottom of the graph. If the slope of the line was unstable, the membrane and rolling paper were removed and the set-up steps were repeated.
For a 1 mL assay, 888 uL water and 62.5 uL BMS stock cell suspension were added to the oxygen electrode cuvette. The final concentration of cells used in the assay was approximately 8 mg/mL. The rate of oxygen consumed by the cells was monitored on the chart recorder for 3 minutes. Fifty microliters of peptide was then added to the cuvette using a Hamilton syringe. (Peptide stocks were adjusted to deliver the desired concentration in a 50 uL volume). Oxygen consumption was monitored for 5 minutes after peptide addition. The time period for the complete test was 8 minutes.
The rate of suppression of oxygen consumption after the addition of a peptide was determined by comparing the slope of the line before the addition of the peptide to the slope of the line at a set time point after addition of the peptide. The rate of oxygen consumption after addition of the peptide was divided by the initial control rate of oxygen consumption and then multiplied by 100. […]

The subject of series [3] is extracellular plant proteases. Kind of series: in vitro. As to conditions: pH 7.4. The text has this:
In an attempt to determine the sensitivity of peptides to extracellular plant proteases, and to determine the site or sites of processing by these proteases, a system was designed to obtain extracellular fluid from leaves of maize, tobacco, or potato and to use these to test the stability of various peptides.
Extracellular fluid (ECF) was obtained by cutting interveinal pieces from tobacco leaf after they were rinsed in deionized water. The segments were submerged in water in a vacuum desicator and vacuum was applied for 5 to 10 min. The vacuum was released slowly, the leaves were blotted dry and 4 to 5 pieces were rolled and placed in a 50 mL disposable syringe barrel cut down so as to be able to fit in a swinging bucket centrigue rotor. The syringe barrel was placed in a 50 mL screw cap conical centrifuge tube and centrifuged in a swinging bucket rotor at 600×g for 30 min. The liquid was recovered and centrifuged in a microfuge for 10 min. The supernatant was stored at -80° C. and used in subsequent experiments.
To test the stability of a peptide to extracellular plant proteases, 10 ug of the peptide (1 mg/mL) was incubated with 10% extracellular fluid in 50 mM Tris HCL buffer, pH 7.4. The peptides tested were prepared or obtained as described in Examples 6, 13, and 14. After incubation at 37° C. for 0, 15, 30, 45 and 60 min the proteases were inactivated by the addition of trifluoroacetic acid (TFA) to 1% final concentration (v/v).
Peptides were analyzed by reverse phase chromatography on a 2.1×30 mm POROS R/H column (PerSpective Biosystems, Cambridge, Mass.) using a 5 to 35% acetonitrile gradient in 0.1% TFA on a Hewlett-Packard HP1090 high pressure liquid chromatograph (Hewlett Packard, Avondale, Pa.) at 3.5 mL/min.

Series [4] is described as follows: Phytotoxicity (method not given).
Series [5] relates to plant protease.
The mark [6] stands for this setting: 10% extracellular fluid from tobacco leaf.

Results on 10 substances are retold here after patent publication US5519115A, “Reverse antimicrobial peptides” (priority 1993, dated 1996).

Read-outs that look alike come from different tables or passages of the source. Ends that are not written are not given here. Where only a bound is given, the exact number is not on record here.

For “CGIGKFLREAGKFGKAFVGEIMKP [Peptide No. 13, Cys [Arg 7, Glu 8, Pro 23] Mag 1]”, the “inhibition of oxygen evolution” value in the series with isolated chloroplasts was found to be 100%.

For “GIGKFLHEAKKFGKAFVGEIMNS [Peptide No. 10, [Glu 8] Mag 2]”, in the series with plant protease [1], the “decrease in the susceptibility to proteolytic degradation” value was at least 50%.

As to “GIGKFLHSAGKFGKAFVGEIMKS [Peptide No. 2, Magainin 1]”, in series [2], the “Percent Inhibition of Oxygen Consumption Caused by Addition of 4 μM Peptide” value (from here on “Percent Inhibition”) is recorded as 52 +/- 6% and the “phytotoxic effect on whole cells, oxygen consumption (in words)” value (“phytotoxic effect on whole cells” for short) was “greater overall phytotoxic effect on whole cells”.

Broadly, the fraction remaining is the share of the starting amount still present when the sample was taken. In series [3] (setting [6]), “GIGKFLHSAKKFGKAFVGEIMNS [Peptide No. 1, Magainin 2]” showed a fraction remaining at 0.25 h of 23%, a share remaining at 0.5 h of 18%, a share remaining at 0.75 h of 5.3% and a share remaining at 1 h of 0.5%. Besides, the “Percentage of Area Under the Parent Peak” value in series [3] (Time 0 min, 10% extracellular fluid, 37° C.) was 100 Percentage. Besides, in series [2] (Table V), the “phytotoxic effect on whole cells” value is reported as “much higher level of inhibition of oxygen consumption”.

In the case of “GIGKFLHSAKKFGKAFVGEIMNSGGGGGGIGKFLHSAKKFGKAFVGEIMNS [Peptide No. 6, Mag 2 dimer (bridged)]”, the “inhibition of oxygen evolution” value in the series with isolated chloroplasts came out at 100%.

As for “GIGKFLHSAKKFGKAFVGEIMNSGIGKFLHSAKKFGKAFVGEIMNS [Peptide No. 5, (Mag 2)-(Mag 2)]”, in series [2], the “Percent Inhibition” value is on record as 72 +/- 13% and the “phytotoxic effect on whole cells” value is listed as “no significantly different effect on phytotoxicity”. Besides, in the series with isolated chloroplasts, the “inhibition of oxygen evolution” value worked out at 100%.

On to “KWKLFKKIEKVGQNIRDGIIKAGPAVAVVGQATQIAK-NH2 [Peptide No. 3, Cecropin A-NH2, reference compound]”, for which, in the series on isolated chloroplasts, the “inhibition of oxygen evolution” value worked out at 100%.

As for “MGIGKFLREAGKFGKAFVGEIMKGIGKFLREAGKFGKAFVGEIMKP [Peptide No. 15, Head-to-tail peptide Nos. 11 and 12***]”, in the series with isolated chloroplasts, the “inhibition of oxygen evolution” value is listed as 100%.

“SNMIEGVFAKGFKKASHLFKGIG [Peptide No. 8, Reverse Magainin 2]”: in series [2], the “Percent Inhibition” value is 16 +/- 12%. Further, the “phytotoxicity effect compared to native Magainin 2 (in words)” value with isolated chloroplasts is reported as “extremely low Phytotoxicity effect”.

As for “SWLSKTAKKLENSAKKRISEGIAIAIQGGPR [Peptide No. 4, P1]”, the “phytotoxicity (in words)” value in series [4] is “very low”. Further, in series [2] (Table V), the “phytotoxic effect on whole cells” value is given as “greater overall phytotoxic effect on whole cells”. Besides, the “susceptibility to proteolysis (in words)” value with plant protease [5] was “very low”.
